{
  "source": "patent US20050118603A1",
  "about": "“Target detection system having a conformationally sensitive probe comprising a nucleic acid based signal transducer” (Ahram Biosystems Inc., priority 2002, published 2005)",
  "molecules": {"B1": {"name": "second probe: immobilized trimolecular affinity probe of Example 9: OB1-1B, CM1-4B and CM3* (nucleic acid)", "chain 1": "ATGGAAGTATATGGAAGTATATGGAAGTATTCGTGGGGTTTTGCAGTCGTAG", "chain 2": "GACTGCAAAACCCC", "chain 3": "CTACGACTGCAA", "modifications": "chain 1: DNA, backbone not given here; chain 2: DNA, backbone not given here; chain 3: DNA, 5' {Fluorescein}, backbone not given here; OB1-1B biotin at 5' first nucleotide, CM1-4B biotin ligand, further chemistry not fully specified"}},
  "key": {"streptavidin [1]": {"molecular_target": "T1, streptavidin (Streptomyces avidinii, UniProt P22629)", "T1 construct": "purchased Pierce (IL, USA)", "T1 sequence (P22629 25-183)": "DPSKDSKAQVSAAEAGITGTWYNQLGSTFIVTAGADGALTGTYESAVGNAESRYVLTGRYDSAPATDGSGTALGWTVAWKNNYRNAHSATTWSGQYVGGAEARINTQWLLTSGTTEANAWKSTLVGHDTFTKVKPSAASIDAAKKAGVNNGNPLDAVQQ", "assay": "Inhibition of binding of the receptor agent to the probe ligand using unimolecular probe UP6-23B (Example 18)", "settings": "12.5 pmol streptavidin, 50 pmol probe; background subtracted", "protocol": "Assay solutions for the inhibition test were prepared as follows. In each well of a 96 well PCR plate, 50 μL of 10 mM Tris, pH 8.5, 50 mM KCl, 2.5 mM MgCl2 containing 12.5 pmol of streptavidin and different amount of an inhibitor (biotin) was introduced and incubated for about 30 min at room temperature. About 50 pmol of the probe UP6-23B (SEQ ID NO: 141) was then added to each well and incubated for about 30 min at 60° C. before the fluorescence measurement."}, "[2]": {"tested_on": "T2, PKC probe UP10-23PKC (SEQ ID NO: 165), peptide KRTLRRC conjugated to the UP10-23A pre-probe", "T2 sequence": "KRTLRRC"}, "streptavidin [3]": {"molecular_target": "T1, streptavidin", "assay": "Receptor-binding assay, temperature dependence of fluorescence signal of unimolecular probes (Examples 11-17)", "settings": "for relative increase of the fluorescence intensity (¼ molar equivalent of streptavidin divided by that without streptavidin): 25° C., 50 pmol probe", "protocol": "In order to perform receptor-binding assay, about 50 pmol of each unimolecular probe was mixed with 0, ⅛, and ¼ molar equivalent of streptavidin (0, 6.25, 12.5 pmol, respectively) in 50 μL of pH 8.5 10 mM Tris containing 50 mM KCl, […] well of a 96 well PCR plate (Bio-Rad, CA, USA). Note that ¼ molar equivalent of streptavidine corresponds to 1 molar equivalent of the biotin binding site in streptavidin with respect to the amount of the unmolecular probe used because streptavidin has 4 biotin binding sites. The assay solutions were then incubated for about 30 min at 60° C. The temperature dependence of the fluorescence signal from each well was measured with an iCycler iQ real time PCR machine purchased from Bio-Rad (CA, USA) using the melting profile protocol.\nThe assay solutions for the unimolecular probes (50 pmol of each probe with 0, ⅛, and ¼ molar equivalent of streptavidin) were prepared in a 96 well PCR plates by the same procedure described in Example 11. As in Example 11, the temperature dependence of the fluorescence signal was measured with an iCycler iQ real time PCR machine.\n(§1) Again, the assay solutions for the above unimolecular probes (50 pmol of each probe with 0, ⅛, and ¼ molar equivalent of streptavidin) were prepared in a 96 well PCR plates by the same procedure described in Example 11, and the temperature dependence of the fluorescence signal was measured with an iCycler iQ real time PCR machine.\nas §1, with “above two” for “above”, “0” for “0, ⅛,”\nAssay solutions for the above unimolecular probe (50 pmol of each probe with 0 and ¼ molar equivalent of streptavidin) were prepared in a 96 well PCR plates by the same procedure described in Example 11, and the temperature dependence of the fluorescence signal was measured.\nAssay solutions for the above unimolecular probe (50 pmol of each probe with 0 and ¼ molar equivalent of streptavidin with total volume including the buffer solution being 50 μL) were prepared in a 96 well PCR plates using the following four buffer solutions: pH 6.0 10 mM MES containing 50 mM KCl, 2.5 mM MgCl2; pH 7.0 10 mM Tris containing 50 mM KCl, 2.5 mM MgCl2; pH 8.0 10 mM Tris containing 50 mM KCl, 2.5 mM MgCl2; and pH 9.0 10 mM Tris containing 50 mM KCl, […] The temperature dependence of the fluorescence signal from each well was measured with an iCycler iQ real time PCR machine."}, "streptavidin [4]": {"molecular_target": "T1, streptavidin", "assay": "Unimolecular probe assay for streptavidin analysed by non-denaturing electrophoresis (Example 3)", "format": "binding", "settings": "in the presence of streptavidin; incubated in ice for an hour", "excerpt": "Two unimolecular affinity probes, UP1-34B (SEQ ID NO: 127) and UP2-6B/36B (SEQ ID NO: 128), having biotin as a probe ligand were used to detect a receptor agent, streptavidin (SA). The unimolecular affinity probe UP1 is depicted schematically in FIG. 18. UP1 has a biotin-coupled thymidine at the 34th position, and UP2 has two biotin-coupled thyrnidines at the 6th and 36th positions (see FIG. 23A for the structure of the biotin-coupled thymidine). Each unimolecular probe has an interactive label pair consisting of a fluorescer, fluorescein, and a quencher, DABCYL (4-(4′-dimethylaminophenylazo)benzoic acid), which are covalently linked to the 5′ and the 3′ terminus by a linker, respectively. The structures of the fluorescein and DABCYL with the linker are shown in FIGS. 23B and 23D, respectively. […] This causes decrease of the fluorescence intensity from the probe compared to the dissociated conformation in which the stem duplex is dissociated and thus the fluorescer moiety is located distal from the quencher moiety. […]\nAssay solutions were prepared according to the compositions summarized in Table 6, incubated in ice for an hour, and analyzed by electrophoresis. […] Dissociation of the stem duplexes due to the destabilization effect caused by the binding of the receptor agent is manifested by the increased fluorescence. […]"}, "streptavidin [5]": {"molecular_target": "T1, streptavidin", "assay": "Immobilized trimolecular affinity probe assay for detecting streptavidin (Example 9)", "format": "binding", "settings": "upon addition of streptavidin, depending on amount added; CM3* fluorescence at 535 nm", "excerpt": "Two immobilized trimolecular affinity probes having a probe ligand (biotin) conjugated to the first complement sequence were used to detect streptavidin. One of the trimolecular probes used in this example is depicted schematically in FIG. 15. The first probe consists of an object oligonucleotide OB1-1B (SEQ ID NO: 135) comprising first and second object sequences, a first complement sequence CM2-4B (SEQ ID NO: 136) having a probe ligand, and a second complement sequence CM3* (SEQ ID NO: 131). The second probe consists of an object oligonucleotide OB1-1B (SEQ ID NO: 135), a first complement sequence CM1-4B (SEQ ID NO: 133) having a probe ligand, and a second complement sequence CM3* (SEQ ID NO: 131). The object oligonucleotide OB1-1B has a biotin covalently linked to the first nucleotide, adenosine in the 5′ end that is used to immobilize the object sequence (see FIG. 23E for the structure of the biotin-coupled abasic nucleotide). The second complement oligonucleotide CM3* has fluorescein as a fluorescent label at the 5′ terminal.\nThe object oligonucleotide having a biotin residue in the 5′ terminal was immobilized to microwell plate wells coated with streptavidin. […] Fluorescence from the second complement oligonucleotide CM3* from each well was then measured at 535 nm using a microwell plate reader (GENios, TECAN, USA)."}, "[6]": {"settings": "pH 6.0, 7.0, 8.0, 9.0, without and with streptavidin"}},
  "note": "{Fluorescein} = fluorescein attached by a linker",
  "data": [
    {"molecule": "O=C(O)CCCC[C@@H]1SC[C@@H]2NC(=O)N[C@@H]21", "note": "[biotin]", "values": [
      {"measurement": "fluorescence intensity of UP6-23B as a function of inhibitor concentration", "setting": "streptavidin [1]", "value": "decreases with increasing inhibitor concentration"}
    ]},
    {"molecule": "PKC (Protein Kinase C)", "values": [
      {"measurement": "fluorescence signal of the PKC probe after the kinase reaction and addition of anti-phosphothreonine antibody", "setting": "[2]", "value": "a substantial increase of the fulorescence signal with respect to that measured with un-reacted PKC probe is observed in the absence of the inhibitor"}
    ]},
    {"molecule": "UP1-34B: unimolecular affinity probe (SEQ ID NO: 127), biotin-thymidine at 34th position, fluorescein/DABCYL, 6 bp stem (GCAGCCTAGGAAACACCAAAGATGATATTTGGCTGC; listed as DNA, chemistry not fully specified)", "values": [
      {"measurement": "melting temperature higher than that of the probe UP14-21B", "setting": "streptavidin [3]; 6 bp stem duplex vs 4 bp stem duplex", "value": "about 20 °C"},
      {"measurement": "fluorescence in the high mass region of the gel", "setting": "streptavidin [4]", "value": "strongly enhanced fluorescence"}
    ]},
    {"molecule": "UP2-6B/36B: unimolecular affinity probe (SEQ ID NO: 128), biotin-thymidines at 6th and 36th positions, fluorescein/DABCYL, 7 bp stem (GCAGCTCTAGGAAACACCAAAGATGATATTTGAGCTGC; listed as DNA, chemistry not fully specified)", "values": [
      {"measurement": "fluorescence in the high mass region of the gel", "setting": "streptavidin [4]", "value": "strongly enhanced fluorescence"}
    ]},
    {"molecule": "UP6-23B: unimolecular probe (SEQ ID NO: 141), 15 nt loop, 5 bp stem, biotin, fluorescein/DABCYL (GCAGGATACTCATTACCATACCTGC; biotin, fluorescein and DABCYL, positions not given here, hairpin)", "values": [
      {"measurement": "melting temperature", "setting": "streptavidin [3]; absence of the receptor agent, 0 mM MgCl2", "value": "about 38 °C"},
      {"measurement": "melting temperature", "setting": "streptavidin [3]; absence of the receptor agent, 5 mM MgCl2", "value": "about 58 °C"},
      {"measurement": "fluorescence intensity as a function of pH", "setting": "streptavidin [3]; [6]", "value": "increases dramatically depending on the pH"},
      {"measurement": "melting temperature as a function of pH", "setting": "streptavidin [3]; [6]", "value": "increases with pH"},
      {"measurement": "melting temperature", "setting": "streptavidin [3]; presence of the receptor agent (¼ molar equivalent of streptavidin), 0 mM MgCl2", "value": "about 33 °C"},
      {"measurement": "melting temperature", "setting": "streptavidin [3]; presence of the receptor agent (¼ molar equivalent of streptavidin), 5 mM MgCl2", "value": "about 45 °C"}
    ]},
    {"molecule": "UP10-13B: unimolecular probe (SEQ ID NO: 155), biotin in loop, 8th nucleotide from both ends of the loop region (GCAGCATCCTCATTACCCTAGCTGC; biotin in loop, hairpin stem-loop, further chemistry not given here)", "values": [
      {"measurement": "response of the fluorescence signal of the unimolecular probe to addition of the receptor agent (conjugation position dependence)", "setting": "streptavidin [3]; ¼ molar equivalent of streptavidin vs. none", "value": "did not work properly as a unimolecular probe"}
    ]},
    {"molecule": "UP14-21B: unimolecular probe (SEQ ID NO: 149), 4 bp stem duplex, biotin, fluorescein/DABCYL (GCAGATACTCATTACCATACTGC; biotin, fluorescein and DABCYL, positions not given here, hairpin)", "values": [
      {"measurement": "relative increase of the fluorescence signal, compared between the 4 bp and 6 bp stem probes", "setting": "streptavidin [3]; upon addition of streptavidin", "value": "larger"}
    ]},
    {"molecule": "UP15-23B: unimolecular probe (SEQ ID NO: 150), stem and loop length as UP6-23B, different loop sequence with secondary 4 bp stem conformer (GCAGGATACTGCTTACCATACCTGC; biotin label, position not given here, hairpin)", "values": [
      {"measurement": "relative increase of the fluorescence intensity (¼ molar equivalent of streptavidin divided by that without streptavidin)", "setting": "streptavidin [3]", "value": "about 3"}
    ]},
    {"molecule": "UP16-23B: unimolecular probe (SEQ ID NO: 151), stem and loop length as UP6-23B, different loop sequence with secondary 4 bp stem conformer (GCAGGACTCTCATTACACTGCCTGC; listed as DNA, chemistry not fully specified)", "values": [
      {"measurement": "relative increase of the fluorescence intensity (¼ molar equivalent of streptavidin divided by that without streptavidin)", "setting": "streptavidin [3]", "value": "about 1.5"}
    ]},
    {"molecule": "B1", "values": [
      {"measurement": "increase of fluorescence intensity, normalized to intensity in the absence of the receptor agent", "setting": "streptavidin [5]", "value": "2-3.5 fold"}
    ]}
  ]
}
